Measured values as given in patent US9302999B2, “Substituted triazoles as herbicides” (E. I. DU PONT DE NEMOURS AND COMPANY, priority 2012, dated 2016).
Where two headings read alike, the source gives them in different places.

What was measured:
Assay type in all cases: in vivo
[1] = system: morningglory (Ipomoea coccinea); test: Test C pre-/postemergence: morningglory
How it was run: (§1)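 Preemergence on seeds in loam/sand, postemergence on 2–18 cm (1–4-leaf) plants in peat-based medium; compounds in non-phytotoxic solvent with surfactant. After 13–15 days in greenhouse, visual rating versus controls, 0 (no effect) to 100 (complete control).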

wild oat (Avena fatua) = test: Test C pre-/postemergence: wild oat
How it was run: as §1

[2] = system: nutsedge, yellow (yellow nutsedge, Cyperus esculentus); test: Test C pre-/postemergence: nutsedge, yellow
How it was run: as §1

[3] = system: winter wheat (Triticum aestivum); test: Test C pre-/postemergence: winter wheat
How it was run: as §1

[4] = system: blackgrass (Alopecurus myosuroides); test: Test C pre-/postemergence: blackgrass
How it was run: as §1

[5] = system: galium (catchweed bedstraw, Galium aparine); test: Test C pre-/postemergence: galium
How it was run: as §1

[6] = system: pigweed (Amaranthus retroflexus); test: Test C pre-/postemergence: pigweed
How it was run: as §1

rice (Oryza sativa) = test: Test B flooded paddy: rice; conditions: Flood; 250 g ai/ha; applied to paddy water at 2-leaf stage; visually evaluated after 13 to 15 days
How it was run: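 Response scored visually, 0–100 relative to controls, 13–15 days after the compound was applied into paddy water; plants were at the 2-leaf stage in pots kept flooded to 3 cm.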

[7] = system: ragweed (common ragweed, Ambrosia elation); test: Test C pre-/postemergence: ragweed
How it was run: as §1

[8] = system: pigweed (Amaranthus retroflexus); test: Test A pre-/postemergence: pigweed; conditions: Amaranthus retroflexus, 240 h; for pest or weed control at 125 g/ha: 125 g ai/ha; for pest or weed control at 500 g/ha: 500 g ai/ha
How it was run: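 Each species received preemergence soil-directed spraying and, at the same time, postemergence treatment of seedlings 2–10 cm tall. Formulation: non-phytotoxic solvent mixture including surfactant. Response assessed visually about ten days on, relative to untreated controls, 0–100 scale.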

[9] = Postemergence, 31 g ai/ha, scale 0 to 100 (0 no effect, 100 complete control)
[10] = Postemergence, 62 g ai/ha, scale 0 to 100 (0 no effect, 100 complete control)
[11] = Postemergence, 125 g ai/ha, scale 0 to 100, 0 no effect, 100 complete control
[12] = Postemergence, 250 g ai/ha, scale 0 to 100 (0 no effect, 100 complete control)
[13] = Preemergence, 31 g ai/ha, scale 0 (no effect) to 100 (complete control)
[14] = Preemergence, 62 g ai/ha, scale 0 to 100, 0 no effect, 100 complete control
[15] = Preemergence, 125 g ai/ha, scale 0 to 100, 0 no effect, 100 complete control
[16] = Preemergence, 250 g ai/ha, scale 0 to 100, 0 no effect, 100 complete control

CCOc1nn(-c2ccc(F)cc2)nc1Cc1ccnc(C(F)(F)F)c1 [Compound 196, 4-[[5-ethoxy-2-(4-fluorophenyl)-2H-1,2,3-triazol-4-yl]methyl]-2-(trifluoromethyl)pyridine]
Plant response rating, Morningglory [1, 9]: 75
Plant response rating, Morningglory [1, 10]: 75
Plant response rating, Morningglory [1, 11]: 75
Plant response rating, Morningglory [1, 12]: 75
Plant response rating, Morningglory [1, 13]: 40
Plant response rating, Morningglory [1, 14]: 85
Plant response rating, Morningglory [1, 15]: 100
Plant response rating, Morningglory [1, 16]: 100
Plant response rating, Oat, Wild (wild oat (Avena fatua); [9]): 55
Plant response rating, Oat, Wild (wild oat (Avena fatua); [10]): 85
Plant response rating, Oat, Wild (wild oat (Avena fatua); [11]): 85
Plant response rating, Oat, Wild (wild oat (Avena fatua); [12]): 90
Plant response rating, Oat, Wild (wild oat (Avena fatua); [13]): 80
Plant response rating, Oat, Wild (wild oat (Avena fatua); [14]): 90
Plant response rating, Oat, Wild (wild oat (Avena fatua); [15]): 90
Plant response rating, Oat, Wild (wild oat (Avena fatua); [16]): 90
Plant response rating, Nutsedge, Yellow [2, 9]: 10
Plant response rating, Nutsedge, Yellow [2, 10]: 10
Plant response rating, Nutsedge, Yellow [2, 11]: 15
Plant response rating, Nutsedge, Yellow [2, 12]: 20
Plant response rating, Nutsedge, Yellow [2, 13]: 0
Plant response rating, Nutsedge, Yellow [2, 14]: 0
Plant response rating, Nutsedge, Yellow [2, 15]: 5
Plant response rating, Nutsedge, Yellow [2, 16]: 10
Plant response rating, Wheat [3, 9]: 15
Plant response rating, Wheat [3, 10]: 35
Plant response rating, Wheat [3, 11]: 45
Plant response rating, Wheat [3, 12]: 45
Plant response rating, Wheat [3, 13]: 0
Plant response rating, Wheat [3, 14]: 15
Plant response rating, Wheat [3, 15]: 40
Plant response rating, Wheat [3, 16]: 50
Plant response rating, Blackgrass [4, 9]: 70
Plant response rating, Blackgrass [4, 10]: 80
Plant response rating, Blackgrass [4, 11]: 80
Plant response rating, Blackgrass ([4]; Postemergence, 250 g ai/ha, scale 0 to 100): 80
Plant response rating, Blackgrass [4, 13]: 90
Plant response rating, Blackgrass [4, 14]: 90
Plant response rating, Blackgrass [4, 15]: 90
Plant response rating, Blackgrass [4, 16]: 90
Plant response rating, Galium [5, 9]: 80
Plant response rating, Galium [5, 10]: 85
Plant response rating, Galium [5, 11]: 90
Plant response rating, Galium [5, 12]: 95
Plant response rating, Galium [5, 13]: 85
Plant response rating, Galium [5, 14]: 95
Plant response rating, Galium [5, 15]: 98
Plant response rating, Galium [5, 16]: 100
Plant response rating, Pigweed [6, 9]: 98
Plant response rating, Pigweed [6, 10]: 98
Plant response rating, Pigweed [6, 11]: 98
Plant response rating, Pigweed [6, 12]: 98
Plant response rating, Pigweed [6, 13]: 95
Plant response rating, Pigweed [6, 14]: 98
Plant response rating, Pigweed [6, 15]: 98
Plant response rating, Pigweed [6, 16]: 98
Plant response rating, Rice (0 to 100 scale, 0 is no effect, 100 is complete control) (rice (Oryza sativa)): 70
Plant response rating, Ragweed [7, 9]: 70
Plant response rating, Ragweed [7, 10]: 85
Plant response rating, Ragweed [7, 11]: 90
Plant response rating, Ragweed [7, 12]: 90
Plant response rating, Ragweed [7, 13]: 40
Plant response rating, Ragweed [7, 14]: 60
Plant response rating, Ragweed [7, 15]: 80
Plant response rating, Ragweed [7, 16]: 90
pest or weed control at 125 g/ha ([8]; post-emergence, Postemergence, 0 to 100 scale, 0 is no effect, 100 is complete control, read-out: Plant response rating, Pigweed): 100%
pest or weed control at 500 g/ha ([8]; post-emergence, Postemergence, 0 to 100 scale, 0 is no effect, 100 is complete control, read-out: Pigweed plant response rating): 100%
pest or weed control at 125 g/ha ([8]; pre-emergence, Preemergence, 0 to 100 scale where 0 is no effect and 100 is complete control, read-out: Plant response rating, Pigweed): 100%
pest or weed control at 500 g/ha ([8]; pre-emergence, Preemergence, 0 to 100 scale (0 no effect, 100 complete control), read-out: Plant response rating, Pigweed): 100%
